Columns and labels:
[1] = system: pre-synaptic vesicles in the hippocampus; test: Pre-synaptic vesicle count by transmission electron microscopy, middle aged rats; type: in vivo, Wistar male rats; settings: CA1 and C3 subregions; 3 mg/kg/day x 7 days, s.c.; 21 days
Procedure: Four middle aged Wistar male rats (12 months) were divided into two groups: one vehicle-treated (n=2) and one cG-2-AllylP-treated (n=2). The rats were treated subcutaneously with 3 mg/kg/day of either saline or cG-2-AllylP for 7 days. On day 21 of the experiment the animals were sacrificed and the hippocampal tissue was harvested. Semi-thin sections of the tissue were fixed with OsO4 and embedded in resin. CA1 stratum oriens and CA3 sections were then sliced into ultra-thin, 80 nm slices and stained with uranyl acetate and lead citrate. Approximately 30 synapses per animal were analysed, synapse type classified and vesicle density was measured using AnalySIS®.
Transmission electron microscopy was used to count the total number of vesicles on the slides. The average density was calculated by measuring the total area (using AxioVision software) and using the number of vesicles. We followed the protocol in Yoshida et al. 97, Journal of Neurochemistry to calculate the vesicle density in a 200 nm×200 nm square apposing the post-synaptic density (PSD).

cerebellar explants = test: Cerebellar explants, glutamate/3-nitropropionic acid neurotoxicity; type: cell-based, Wistar rats
Procedure: Cover slips were placed into a large Petri dish and washed in 70% alcohol for 5 minutes, then washed with Millipore H2O. The cover slips were air dried, and coated with Poly-D-Lysine (1 mg/ml stock solution in PBS, 90-100 μl) for 2 hours at 34° C.
Postnatal day 8 Wistar rats were used for the study. The rats were sacrificed and placed in ice for 1 minute, decapitated and the cerebellum removed and placed on ice. Cerebellum tissue was placed in 1 ml of 0.65% glucose-supplemented PBS (10 μl 65% stock D (+)glucose/1 ml PBS) in a large Petri dish, chopped up into smaller sections and triturated with a 1 ml insulin syringe via a 23 G (0.4 mm) needle, and then squirted back into the glucose solution in the large Petri dish. The tissue was sieved through (125 μm pore size gauze) and centrifuged (2 minutes at 60 g) twice to exchange the medium into serum-free BSA-supplemented START V medium (Biochrom, Germany). The second centrifugation step was done with 1 ml of START V medium. The microexplants were reconstituted into 500 μl of START V medium and put on ice.
Two hours after PDL-coating, the slides were washed with Millipore H2O and air dried. Each slide was placed into a small Petri dish (diameter: 35 mm) and 40 μl of START V/cell suspension was added. The tissue was incubated for 2 hours at 34° C. (settlement period). START V-medium (1 ml) was then added to the Petri dish and cultivated at 34° C. in the presence of 5% CO2 in air at 100% humidity for 48 hours.
For the study, certain explant cultures were exposed to vehicle (PBS) only. In the first study (Study 1) 10 μl of toxin 1 (L-glutamate—100 mM in Millipore water; final concentration; 1 mM) and 10 μl of toxin 2 (3-nitropropionic acid—50 mM—pH 7—in Millipore water, final concentration: 0.5 mM) was applied simultaneously with the drug to be tested ([…]). In each case, the drugs were left in contact with the explants for the duration of the study.
After explants were exposed to drugs for the study period, cells were then rinsed in PBS and then fixed in increasing concentrations of paraformaldehyde (500 μl of 0.4% PFA was applied; then 1.2% PFA; then 3% PFA and finally 4% PFA (each fixation step: 2-3 minutes). Finally, the microexplants were rinsed in PBS.
Neurons in the explants were then evaluated for morphology (presence of neurites) and counted as live cells per microscopic field. Four fields displaying highest cell density were counted per cover slip and the data presented as mean±standard error of the mean (SEM); n=4 each. Statistical significance was evaluated by using the non-paired Student's t-test.

synaptophysin = test: Synaptophysin immunohistochemical staining of hippocampus; type: in vivo, male Wistar rats; settings: for density of synaptophysin staining: 28 days post-treatment
Procedure: Aged rats (male Wistar rats, 18-20 months old) were divided into four groups: two vehicle-treated (groups 1 and 3) and two G-2-AllylP treated (groups 2 and 4) (all groups n=6-8). Cyclic G-2-AllylP was synthesised by the Department of Medicinal Chemistry and dissolved in normal saline before the treatment. On day 1 a single dose of cyclic G-2-AllylP was given centrally (20 ng/animal, i.c.v.) to the animals in groups 2 and 4; saline was administered to groups 1 and 3. The memory tests using Novel Object Recognition Test started either on day 3 (groups 1 and 2) or 24 (groups 3 and 4) after the treatment. On the completion of the NORT, the rats were killed with an overdose of sodium pentobarbital and were perfused transcardially with normal saline followed by 10% formalin. Tissues collected at day 7 in groups 1 and 2, and at day 28 from groups 3 and 4. The brains were kept in the same fixative for a minimum of 2 days before being processed using a standard paraffin embedding procedure. Briefly, small blocks (10×10×3 mm) of tissue were fixed for up to 24 hrs. The blocks were then infiltrated and embedded with paraffin and cut in ribbons and mounted on slides. Slides were then stored until immunostaining was commenced. Synaptogenesis in brain tissue was examined using immunohistochemical staining.
Synaptophysin is a presynaptic vesicle protein. Its quantitative detection is established as a molecular marker of synaptic density.
Conventional deparaffinisation and rehydration techniques were used to allow the water-based buffers and antibodies to penetrate the tissue slices. Antigen retrieval was used only prior to AMPA receptor (GluR1) staining, i.e. the slides were placed in boiling citrate buffer and allowed to cool.
The following antibodies were used: • i) primary rabbit antibody to NMDA NR1 subunit, at 1:200 concentration in buffer, incubated for 48 hrs (Chemicon—AB1516), followed by Sigma fluorescent secondary antibody (alexaFluor 394), at 1:200 dilution, incubated for 24 hours at 40C. • ii) primary antibody to AMPA GluR1 subunit, at 1:30 concentration in buffer, incubated for 48 hrs (Chemicon—AB1504) followed by 3,3′-diaminobenzidine (DAB) at 1:200 dilution, incubated for 24 hours at 40C. • iii) Primary antibody to mSynaptophysin (Sigma—S5768), at 1:200 concentration in buffer, followed by DAB at 1:200 dilution, incubated for 24 hours at 40C. • iv) Primary antibody to rKrox-24 (Santa Cruz—catalogue number SC-189) at 1:200 concentration in the buffer, followed by anti-rabbit secondary antibody at concentration of 1:200 dilution, incubated for 24 hours at 40C. • y) Antibodies were detected using light microscopy.
We subsequently analysed effect of cG-2AllylP on the levels of synaptophysin staining in CA3 and CA1 regions of the hippocampus.

**Q.** How did the “number of pre-synaptic vesicles” value [1] turn out when `C=CC[C@]12CCCN1C(=O)CNC2=O` [cG-2-AllylP, (8aS)-Allyl-hexahydropyrrolo[1,2-a]pyrazine-1,4-dione] was run?
**A.** increased

**Q.** And the “numbers of cells having neurites” value (cerebellar explants; administered simultaneously with glutamate)?
**A.** significantly increased the numbers of cells having neurites in a dose-dependent manner

**Q.** And the glutamate-induced neurotoxicity (cerebellar explants; low doses (cG-2-AllylP: 100 pm to 10 nm))?
**A.** significant decrease in glutamate-induced neurotoxicity

**Q.** And the “density of synaptophysin staining” value (synaptophysin; CA1 strata oriens and radiatum)?
**A.** clear trend towards

**Q.** And the “density of synaptophysin staining” value (synaptophysin; CA3)?
**A.** significant increase

**Q.** And the “density of pre-synaptic stain (FIG. 6)” value (synaptophysin; CA3 region, day 24 post-treatment)?
**A.** trend to increase the density of pre-synaptic stain

**Q.** What about the “density of pre-synaptic stain (FIG. 7)” value (synaptophysin; stratum oriens of CA1, day 24 post-treatment) of the same compound?
**A.** trend to increase the density of the pre-synaptic stain

**Q.** And the “density of pre-synaptic stain (FIG. 8)” value (synaptophysin; stratum radiatum of CA1, day 24 post-treatment)?
**A.** increase the density of the pre-synaptic stain

Source: patent US11197856B2, “Bicyclic compounds and methods for their use in treating autism” (priority 2013, dated 2021)
